“Also recorded” adds a separate entry of the source.
Key:
C. elegans [1] = experiment: Drop avoidance assay; type: in vivo; conditions: Fig. 2c
Description: Because the defect in male response to ascr#8 was significant, and the SWAA was designed to detect attractive behaviors, we sought to determine if flp-3 loss-of-function (lof) animals were in fact avoiding ascr#8. Using a previously described drop avoidance assay[11],[41], we exposed forward moving animals to a drop of either vehicle control or ascr#8 and scored the avoidance index. […] The hermaphroditic behavior was unaffected by the loss of flp-3. (Fig. 2f). […] Assays were performed as described previously[4],[11],[41]. Fifty to sixty L4 worms were segregated by sex and stored at 20 °C for 5 h to overnight to be assayed as young adults. One to four hours prior to the assay, the lids of unseeded plates were tilted to allow any excess moisture to evaporate off the plates. At the time of the assay, 10 or more animals were transferred onto each of the dried, unseeded plates. A drop of either water or 1 µM ascr#8 was placed on the tail of forward moving animals, and their response was scored as either an avoidance response, or no response. The total number of avoidances was divided by the total number of drops to generate an avoidance index for that plate. This was repeated for at least 10 plates over at least three different days. Statistical comparisons within each strain were made by paired t-test against a significance level set at 0.05. […]

C. elegans [2] = conditions: males no longer attracted to higher concentrations; cited from earlier work
From the text: Here, we investigate the neuronal mechanisms governing the behavioral attractive response of male C. elegans to ascr#8[28].

C. elegans [3] = experiment: Single worm attraction assay (SWAA); type: in vivo
Description: We adapted the spot retention assay (Supplementary Fig. 1)[28],[38] to allow for better characterization of individual worm behavior and robust interrogation of attraction to small molecules. We first compared the attractiveness of 1 µM ascr#8 (Fig. 1a, inset) across multiple strains of C. elegans (the wild-type N2 strain, the high incidence of male him-5 and him-8 strains, and the chemosensory cilia defective osm-3), using our novel behavioral assay, the single worm attraction assay (SWAA) (Fig. 1a). In this assay, individual animals are placed directly into the spot of the ascaroside cue (A) while simultaneously removing any potential of male–male contact. A spatial control is included throughout the assay plate to allow us to investigate any innate differences in the number of visits to the well center, or the time spent therein, of which we have only found one strain to date with differences in male dwell time (Fig. 1a). Likewise, a vehicle control (V) is also included, to account of any changes in dwell time that are driven by the components of the vehicle. The outer forty wells of a 48-well suspension culture plate (Olympus Plastics, Cat #: 25-103) were seeded with 200 µL of standard NGM agar. To prepare the plates for the assay, they were acclimated to room temperature, at which point each well was seeded with 65 µL of OP50 E. coli. […] A single worm was placed in each of the 10 wells to be assayed, and the plate was transferred to a light source and camera and recorded for 15 m. […] Raw dwell time values were calculated by subtracting the time a worm exited the cue (center of the well in spatial controls), from the time it entered, as in the SRA[14]. This was determined per visit, and the average dwell time was calculated for each animal in the quadrant. Averages of the four-quadrant means were determined per plate, and a minimum of five plates were assayed per strain/condition. The mean raw dwell time across five plates was calculated and used for statistical analyses and graphical display. […] The number of visits per-worm was calculated, and the average visit count determined per quadrant, and per plate. The average visit count across five plates was calculated and used for statistical analyses and graphical display. An “attractive visit” was first determined for each plate as any visit greater than two standard deviations above the mean dwell time within the vehicle control for that plate. Any individual visit meeting this threshold was scored as a “1”, and any below was scored a “0”. The percent visits per-worm that were attractive was determined, and the average of each quadrant taken. […] The average percent of attractive visits across five plates was calculated and used for statistical analyses and graphical display. […]

[4] = tested on: flp-3 lof C. elegans males; experiment: Peptide rescue-by-feeding, avoidance assay; type: in vivo; conditions: flp-3 lof males reared on bacteria expressing the peptide; 1 µM ascr#8 drop
From the text: To identify which FLP-3 peptides are required for male avoidance of ascr#8, we adopted a peptide feeding approach, similar to RNAi feeding, as initially described previously[37],[59] (Fig. 6a). Using Gateway Cloning technology, we first inserted FLP-3 peptide coding sequences into a bacterial expression vector. As a control, we first tested the FLP-3 peptides that are still encoded in the ok3625 allele which are insufficient to drive the proper ascr#8 response in vivo: FLP-3-1 (SPLGTMRFamide) and FLP-3-4 (NPLGTMRFamide) (Supplementary Fig. 4). We then reared flp-3 lof animals on lawns of bacteria expressing the rescue constructs, and their progeny were assayed for avoidance (Fig. 6b–d, Supplementary Fig. 12).
DNA oligos containing the sequence for the peptides of interest were generated using Integrated DNA Technologies’ Ultramer synthesis service. The DNA sequence encoding the peptide sequence was flanked with sequences encoding EGL-3 cut sites (MRFGKR upstream, and KRK-STOP) downstream. These sites were then flanked with Gateway Cloning sites attB1 and attB2. Annealed oligos were then used to perform a BP reaction with pDONR p1-p2 to generate the pENTRY clones. […]
Assays were performed as described previously[4],[11],[41]. […] A drop of either water or 1 µM ascr#8 was placed on the tail of forward moving animals, and their response was scored as either an avoidance response, or no response. […]

NPR-10B = molecular target: T1, NPR-10B (Caenorhabditis elegans, UniProt Q6EUU1); experiment: In vitro GPCR activation assay (CHO-K1, aequorin, Gα16), NPR-10B; type: cell-based, C. elegans; conditions: CHO-K1 aequorin/Gα16 calcium response
T1 sequence (Q6EUU1 1-362): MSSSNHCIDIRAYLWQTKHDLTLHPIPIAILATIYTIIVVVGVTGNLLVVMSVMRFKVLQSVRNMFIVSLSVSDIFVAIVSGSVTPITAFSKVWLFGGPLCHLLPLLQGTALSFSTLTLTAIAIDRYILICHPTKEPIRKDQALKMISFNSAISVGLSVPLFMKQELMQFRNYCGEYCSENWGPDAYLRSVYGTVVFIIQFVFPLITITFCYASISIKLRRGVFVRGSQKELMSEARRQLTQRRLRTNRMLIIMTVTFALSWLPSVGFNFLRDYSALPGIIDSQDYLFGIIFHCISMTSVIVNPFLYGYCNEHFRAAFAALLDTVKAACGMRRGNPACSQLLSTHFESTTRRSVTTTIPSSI
Description: (§1) The GPCR activation assay was performed as previously described[66],[74]. Briefly, npr-10 and frpr-16 cDNAs were cloned into the pcDNA3.1 TOPO expression vector (Thermo Fisher Scientific). A CHO-K1 cell line (PerkinElmer, ES-000-A24) stably expressing apo-aequorin targeted to the mitochondria (mtAEQ) and human Gα16 was transiently transfected with the receptor cDNA construct or the empty pcDNA3.1 vector using Lipofectamine LTX and Plus reagent (Thermo Fisher Scientific). Cells were shifted to 28 °C one day later and allowed to incubate for 24 h. On the day of the assay, cells were collected in BSA medium (DMEM/Ham’s F12 with 15 mM HEPES, without phenol red, 0.1% BSA) and loaded with […] coelenterazine h (Thermo Fisher Scientific) for 4 h at room temperature. The incubated cells were then added to synthetic peptides dissolved in DMEM/BSA, and luminescence was measured for 30 s at 496 nm using a Mithras LB940 (Berthold Technologies) or MicroBeta LumiJet luminometer (PerkinElmer). After 30 s of readout, 0.1% triton X-100 was added to lyse the cells, resulting in a maximal calcium response that was measured for 10 s. After initial screening, concentration-response curves were constructed for HPLC-purified FLP-3 peptides by subjecting the transfected cells to each peptide in a concentration range from 1 pM to 10 µM. Cells transfected with an empty vector were used as a negative control. Assays were performed in triplicate on at least two independent days. Concentration-response curves were fitted using Prism v. 7 (nonlinear regression analysis with a sigmoidal concentration-response equation).

NPR-10A = experiment: In vitro GPCR activation assay (CHO-K1, aequorin, Gα16), NPR-10A; type: cell-based, C. elegans; conditions: CHO-K1 aequorin/Gα16 calcium response; Supplementary Fig. 10a
Description: This peptide contains an R-to-K mutation within the C-terminal motif, which may explain the lack of receptor activation.
as §1, with “After initial screening, concentration-response curves were constructed for HPLC-purified FLP-3 peptides by subjecting the transfected cells to each peptide in a concentration range from 1 pM to 10 µM. Cells transfected with an empty vector were used as a negative control. Assays were performed in triplicate on at least two independent days. Concentration-response curves were fitted using Prism v. 7 (nonlinear regression analysis with a sigmoidal concentration-response equation).” left out

FRPR-16 = molecular target: T2, FRPR-16 (Caenorhabditis elegans, UniProt Q21957); experiment: In vitro GPCR activation assay (CHO-K1, aequorin, Gα16), FRPR-16; type: cell-based, C. elegans; conditions: CHO-K1 aequorin/Gα16 calcium response
T2 sequence (Q21957 1-340): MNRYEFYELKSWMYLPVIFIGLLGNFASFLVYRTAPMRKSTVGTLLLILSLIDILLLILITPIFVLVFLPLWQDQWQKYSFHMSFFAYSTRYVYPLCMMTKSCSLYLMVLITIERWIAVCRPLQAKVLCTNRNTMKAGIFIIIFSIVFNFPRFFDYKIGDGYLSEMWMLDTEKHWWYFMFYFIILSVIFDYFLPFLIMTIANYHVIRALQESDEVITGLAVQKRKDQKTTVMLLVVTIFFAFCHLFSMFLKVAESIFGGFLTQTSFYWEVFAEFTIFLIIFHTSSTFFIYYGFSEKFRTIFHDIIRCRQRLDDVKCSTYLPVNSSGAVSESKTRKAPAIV
Description: as §1

Compound: C[C@H](CC/C=C/C(=O)Nc1ccc(C(=O)O)cc1)O[C@@H]1O[C@@H](C)[C@H](O)C[C@H]1O [ascr#8]
- Avoidance of the cue, in words (C. elegans [1]; flp-3 lof males): strongly avoided
- Avoidance of the cue, in words (C. elegans [1]; wild-type males): did not avoid
- Concentration preferred by males (behavioral tuning curve) (C. elegans [2]): ~1 µM
- Attractive visits to the cue (C. elegans [3]; 1 µM ascr#8, males of wild-type strains, Supplementary Fig. 2b): 30–45%
- Time spent in ascr#8 compared to the vehicle, in words (C. elegans [3]; hermaphrodites from all strains): significantly less time
- Time spent within ascr#8 spot compared to the vehicle control, in words (C. elegans [3]; males, all wild-type and him strains, Fig. 1b, c): significant increase

Compound: STVDSSEPVIRDQ [FLP-3-10, non-RFamide peptide encoded by the flp-3 gene]
- Rescue of the ascr#8 avoidance phenotype, in words [4]: unable to rescue the avoidance phenotype
- Activation of NPR-10 (NPR-10B), in words (NPR-10B): activated no receptors; also recorded: failed to activate; also recorded: did not activate either receptor
- Activation of NPR-10A, in words (NPR-10A): activated no receptors
- Activation of FRPR-16, in words (FRPR-16): activated no receptors; also recorded: did not activate either receptor

— publication PMC8408276, “Distinct neuropeptide-receptor modules regulate a sex-specific behavioral response to a pheromone” (Communications Biology, 2021)
